Measured values reported in PubChem BioAssay (NCI).
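Each compound was tested at five concentrations against cells in 96-well plates for 48 hours. The concentration for 50% growth inhibition is given as GI50. TGI denotes the concentration required for complete inhibition of growth.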

Experiments:
Test in all cases: NCI anticancer screen, dose series, 48 h
[1] = system: 786-0 renal
[2] = system: HOP-62 NSCLC
[3] = system: MCF7 breast
[4] = system: OVCAR-3 ovarian
[5] = system: PC-3 prostate
[6] = system: SNB-75 CNS
[7] = system: T-47D breast
[8] = system: U251 CNS
[9] = system: HOP-92 NSCLC

| SMILES | TGI [1] [µM] | TGI [2] [µM] | TGI [3] [µM] | TGI [4] [µM] | TGI [5] [µM] | TGI [6] [µM] | TGI [7] [µM] | TGI [8] [µM] | TGI [9] [µM] | GI50 [2] [µM] | GI50 [9] [µM] | GI50 [3] [µM] | GI50 [4] [µM] | GI50 [5] [µM] | GI50 [6] [µM] | GI50 [7] [µM] | GI50 [8] [µM] |
| --- | --- | --- | --- | --- | --- | --- | --- | --- | --- | --- | --- | --- | --- | --- | --- | --- | --- |
| Cc1cc(S(=O)(=O)O)c(NC(=O)c2oc3cc(O)ccc3c(=O)c2C)cc1Cl | > 100 | > 100 | > 100 | > 100 | > 100 | > 100 | > 100 | > 100 |  |  |  |  |  |  |  |  |  |
| Cc1ccc2c(c1)CC1(C2=O)[C@H](c2ccccc2)C2C(=O)c3ccc(C)cc3C2[C@H]1c1ccccc1 (some centres undefined) | > 100 | > 100 | > 100 | > 100 | > 100 | > 100 | > 100 | > 100 | > 100 |  |  |  |  |  |  |  |  |
| Cn1c(=O)sc2cc(C(=S)N3CCOCC3)ccc21 | > 100 | > 100 | > 100 | > 100 | > 100 | > 95.3 | > 100 | > 100 | > 100 |  |  |  |  |  |  |  |  |
| [N-]=[N+]=C(C(=O)C(=[N+]=[N-])C(=O)c1ccccc1)C(=O)c1ccccc1 | > 100 | > 100 | > 100 | > 100 | > 100 | > 100 |  |  |  |  |  |  |  |  |  |  |  |
| CC(C)=CCC[C@@H](C)c1c2[nH]c3ccccc3sc-2c(C)c(=O)c1=O | 24.1 | 24.9 | > 75 | > 45.1 | > 75 | > 43.3 | 23.1 | > 75 | > 75 |  |  |  |  |  |  |  |  |
| CC(=O)c1ccc(NC(=O)CSc2nc(C)nc3c2sc(=S)n3-c2ccccc2)cc1 | > 3.16 | > 3.16 | > 10 | > 3.16 |  | > 3.16 | > 3.16 | > 3.16 | > 3.16 |  |  |  |  |  |  |  |  |
| CC(C)(C)c1ccc(-c2nnc(-c3cc(C#N)cc(-c4nnc(-c5ccc(C(C)(C)C)cc5)o4)c3)o2)cc1 | > 100 | > 100 |  | > 100 | > 100 | > 100 | > 100 | > 100 | > 100 |  |  |  |  |  |  |  |  |
| CC1(C)[C@@H]2CC[C@@]1(C)[C@H](O)[C@@H]2SCc1ccccc1 | 32.9 | 33 |  | 31.8 | 50.4 | 49.1 | 62.8 | 31.7 | 28.7 |  |  |  |  |  |  |  |  |
| COc1ccc(C2=C(OC(=O)N(C)C)c3cccn3-c3cc(Cl)ccc3S2)cc1 | > 10 | > 10 | > 10 |  | > 10 | > 10 | > 10 |  | > 10 |  |  |  |  |  |  |  |  |
| CCOC(=O)CCCn1cc(C(=O)OC)nn1 | > 100 | > 100 | > 100 |  | > 100 | > 100 | > 100 | > 100 | > 100 |  |  |  |  |  |  |  |  |
| CCOC(=O)C1CCCCc2sc(N)c(C#N)c21 (centres undefined) | > 100 | > 100 | > 100 |  | > 100 | > 100 |  | > 100 | > 100 |  |  |  |  |  |  |  |  |
| CC(=O)CC1(C)OC(N)=C(C#N)C1(C#N)C#N (centres undefined) | > 100 | > 100 | > 100 |  | > 100 | > 100 | > 100 | > 100 | > 100 |  |  |  |  |  |  |  |  |
| CC12CC(c3ccccc3O1)C(C(=O)Nc1cccc(F)c1)C(=O)N2 (centres undefined) | > 100 | > 100 | > 100 | > 100 | > 100 |  | 89.2 | > 100 |  |  |  |  |  |  |  |  |  |
| C=C[C@@](C)(/C=C/c1ccc(O)cc1)CCC=C(C)C |  | 33.8 | 35.2 | 32.2 | 30.4 | 26.9 | 28.7 | 30.6 | 32 |  |  |  |  |  |  |  |  |
| CC(C)(C)c1c(C(C)(C)C)c(=O)c1=O | > 100 | > 100 | > 100 | > 100 | > 100 | > 100 |  | > 100 | > 100 |  |  |  |  |  |  |  |  |
| NS(=O)(=O)c1cc(S(N)(=O)=O)c(NC(=O)N(c2ccccc2)c2ccccc2)c(Cl)c1Cl | > 100 |  | > 100 | 49.4 | > 100 |  |  | > 100 | 27 |  |  |  |  |  |  |  |  |
| COC(=O)/C=C/c1ccc2c(c1)CC1(Cc3ccccc3C1)C2 | > 100 | > 100 | > 100 | > 100 | > 100 |  | > 100 | > 100 | > 100 |  |  |  |  |  |  |  |  |
| COc1cc(-n2cc(-c3cc(O)c(C/C=C(\C)CCC=C(C)C)c(O)c3)nn2)cc2c1O[C@]1(C)CC[C@@H](O)C(C)(C)[C@H]1C2 |  | 12.7 | 19.2 | 14.3 | > 84.3 | 15 | 47.2 | 10.9 | 17.3 | 0.564 | 1.03 | 0.338 | 2.58 | 0.598 | 0.208 | 1.34 | 0.0959 |
| CCCCCCOc1ccc(C(=N)N(CCCC)CCCC)c2ccccc12 |  | 3.34 |  | 2.98 | 3.05 | 2.46 |  | 2.97 | 2.6 | 1.7 | 1.07 |  | 1.49 | 1.53 | 1.19 |  | 1.5 |
| O=CNNC(=O)Nc1ccc(Cl)cc1 | > 100 | > 100 | > 100 |  |  | > 100 | > 100 | > 100 | 76.8 |  |  |  |  |  |  |  |  |
| O=C1/C(=C\c2cccc(Oc3ccccc3)c2)SC(c2ccccc2)N1c1cccc([N+](=O)[O-])c1 (centres undefined) | > 100 | > 100 | > 100 | > 100 |  |  | > 100 | > 100 | > 100 |  |  |  |  |  |  |  |  |
| COc1cccc(CN(C(=O)/C=C\Sc2ccccc2)C(C)(C)C)c1 | > 100 | > 100 | > 100 | > 100 | > 100 |  | > 100 | > 100 | 70.8 |  |  |  |  |  |  |  |  |
| O=C1CSC2(CC(/C=C/c3ccccc3Br)=NN2c2cccc(S(=O)(=O)O)c2)N1c1nc2ccccc2s1 (centres undefined) | > 100 |  | > 100 |  | > 100 | > 100 | > 100 | > 100 | > 100 |  |  |  |  |  |  |  |  |
